The values that follow come from ChEMBL document CHEMBL1201862, “PubChem BioAssay data set” (2004).

Molecules are shown by their SMILES.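 All cell lines were grown in 96-well plates and treated with compound for 48 hours. At the GI50, growth is halved.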 The source made the active and inactive calls. Rule as the data show it: active = GI50 up to about 1.1 µM and inactive = higher. Where a SMILES comes first, the peptide text is derived from it. The star is where a group is joined. Fmoc = O=C(OCC1c2ccccc2-c2ccccc21)*; OtBu = CC(C)(C)O*

Assay in all cases: NCI tumour cell line growth inhibition, 48 h
The test system of experiment [1] is BT-549.
For experiment [2], the system named is LXFL 529.
The subject of experiment [3] is DMS-273.
The test system of experiment [4] is SNB-78.
For experiment [5], the system named is DLD-1.
Experiment [6] deals with HOP-18.
In experiment [7] the test system is DMS-114.
Experiment [8] concerns XF498.

On to `COc1cc(C2C(Cl)C(=O)N2NC(=O)c2ccccc2O)cc(OC)c1OC` (centres undefined), for which the GI50 in experiment [1] is > 10 µM (inactive).

As for `Nc1nc(SCc2ccccc2)c2ncn(Cc3ccccc3)c2n1`, the GI50 in experiment [1] was > 100 µM (inactive).

For `Cc1cc(C(=O)CSC(=S)SC(C)(C)C)ccc1Cl`, the GI50 in experiment [1] was 21.9 µM (inactive).

In the case of `CN(C)CCCN1c2ccccc2Sc2ccc3ccccc3c21`, the GI50 in experiment [1] is 13.1 µM (inactive).

On to `O=C1/C(=C/c2ccc([N+](=O)[O-])cc2)Oc2cc(O)ccc21`, for which, in experiment [1], the GI50 is 25.9 µM (inactive).

On to `CC(=O)NC1=C(C)C(=O)c2c(nc3n2CCC3OC(=O)CCl)C1=O` (centres undefined), for which the GI50 in experiment [2] was 2.11 µM (inactive); in experiment [3], 17.2 µM (inactive); in experiment [4] it was 2.96 µM (inactive); in experiment [5], 12.9 µM (inactive).

On to `COc1cc(C2C3=C(COC3=O)Oc3cc4c(cc32)OCO4)cc(OC)c1O` (centres undefined), for which, in experiment [1], the GI50 was 39.8 µM (inactive).

As to `COc1ccc(N2N=NN(C(C)C)/C2=C(/Cl)c2nnnn2-c2ccc(OC)cc2)cc1`, the GI50 in experiment [1] was 15.6 µM (inactive).

As for `CC(C)/C(Cl)=N/OC(=O)Nc1ccc(Cl)c(Cl)c1`, in experiment [1], the GI50 was 4.84 µM (inactive).

Turning to `CSc1ncnc2c1cnn2Cc1cn(CCCCO)nn1`, the GI50 in experiment [1] is > 100 µM (inactive).

`Cc1c(C(=O)CC(=O)C(=O)Nc2cc(Cl)ccc2Cl)[n+]([O-])c2ccccc2[n+]1[O-]`: the GI50 in experiment [2] is 45.6 µM (inactive); in experiment [3], 26.1 µM (inactive); in experiment [6], 34.1 µM (inactive); in experiment [7] it was 25.9 µM (inactive); in experiment [8] it was 51.3 µM (inactive); in experiment [4], 50.1 µM (inactive).

Take `CC1(C)O[C@@H](CP(c2ccc3ccccc3c2)c2ccc3ccccc3c2)[C@H](CP(c2ccc3ccccc3c2)c2ccc3ccccc3c2)O1`: in experiment [1], the GI50 was > 100 µM (inactive).

Take `Cc1cn([C@@H]2O[C@H](CO[Si](C)(C)C(C)(C)C)[C@]3(O[C@H]3C(=O)NO)[C@H]2O[Si](C)(C)C(C)(C)C)c(=O)[nH]c1=O`: the GI50 in experiment [1] is 1.66 µM (inactive).

As to `CC1(c2ccc(F)cc2)CC(c2ccc(F)cc2)=C(C#N)C(=C(C#N)C#N)N1` (centres undefined), the GI50 in experiment [1] was 24.9 µM (inactive).

Regarding `O=C(c1ccccc1)c1ccc2[nH]c(-c3c(Cl)c(Cl)c(Cl)c(Cl)c3C(=O)N/N=C/c3ccc(Cl)cc3)nc2c1`, the GI50 in experiment [1] is 33.7 µM (inactive).

With `COC(=O)C12OCC34C(CC5C(C)C6=CC(=O)OC6=CC5(C)C3C(O)C1O)OC(=O)C(O)C24` (centres undefined), the GI50 in experiment [2] is 0.101 µM (active); in experiment [3], 0.178 µM (active); in experiment [6] it was 0.676 µM (active); in experiment [7] it was 0.859 µM (active); in experiment [4], 0.474 µM (active).

Consider `CSc1nn(C)cc2nc(C)nc1-2`, for which the GI50 in experiment [1] is > 100 µM (inactive).

Take `O=S(=O)(/C=C/c1ccc(Cl)cc1Cl)Cc1ccccc1CS(=O)(=O)/C=C/c1ccc(Cl)cc1Cl`: the GI50 was 43.1 µM (inactive) in experiment [2]; 10.2 µM (inactive) in experiment [3]; 31.6 µM (inactive) in experiment [7]; 32.9 µM (inactive) in experiment [8]; > 100 µM (inactive) in experiment [4]; 29 µM (inactive) in experiment [5].

In the case of `O=C(O)c1cc(CC2Cc3cc4c(cc3C2=O)CCC4)cc2c1CCC2` (centres undefined), the GI50 in experiment [1] was > 100 µM (inactive).

On to `COc1cc(C(C)=O)cc(C(=O)N(C(C)C)C(C)C)c1[Si](C)(C)C`, for which, in experiment [1], the GI50 is > 100 µM (inactive).

As for `C=C(C(=O)O)[C@@H]1C[C@@H]2O[C@H]1CC(C)=CCC/C(C)=C/CC[C@@]2(C)O`, in experiment [1], the GI50 is > 100 µM (inactive).

`CC(C)(C)c1cc(C(C)(C)C)c(SSc2c(C(C)(C)C)cc(C(C)(C)C)c(O)c2O)c(O)c1O`: the GI50 in experiment [1] was 13.8 µM (inactive).

Take `N#CC1C(=O)SC2c3ccccc3C(=O)c3ccccc3C12` (centres undefined): the GI50 in experiment [1] was > 10 µM (inactive).

Consider `CC1(C)/C(=N\NC(N)=O)C2CCC1C2` (centres undefined), for which the GI50 in experiment [1] was > 100 µM (inactive).

With `C[C@@H](NS(=O)(=O)c1ccc(NC(=O)c2ccccc2)cc1)C(=O)O`, the GI50 in experiment [2], in experiment [3], in experiment [6], in experiment [8] and in experiment [5] was > 100 µM (inactive) each time.

On to `CC(C)(CO)NC1=C(Cl)C(=O)c2c(O)ccc(O)c2C1=O`, for which the GI50 in experiment [1] is 0.942 µM (active).

Take `O=C(O)c1c(CC(Cc2ccc3c(c2)CCCC3)C(=O)O)ccc2c1CCCC2` (centres undefined): the GI50 in experiment [1] is > 100 µM (inactive).

For `COC(=O)c1cccn1C(=O)n1cccc1`, the GI50 in experiment [2], in experiment [3], in experiment [6], in experiment [7], in experiment [8] and in experiment [4] was > 100 µM (inactive) in each case. The GI50 in experiment [5] was > 100 µM (inactive).

With `COc1cc(C2c3cc4c(cc3C(=O)C3CCC(=O)N32)OCO4)cc(OC)c1O` (centres undefined), the GI50 in experiment [1] was > 50 µM (inactive).

For the compound `CCN(CC)CC(=O)NC1c2ccccc2Oc2c(C)cccc21` (centres undefined), the GI50 in experiment [2] was > 100 µM (inactive); in experiment [3] it was > 100 µM (inactive); in experiment [7] it was > 100 µM (inactive); in experiment [8], 40 µM (inactive); in experiment [4], > 100 µM (inactive); in experiment [5] it was 81.3 µM (inactive).

Turning to `CN(CCc1ccccn1)c1ccc2c(c1)C(=O)c1ccccc1-2`, the GI50 in experiment [1] is 78.9 µM (inactive).

Take `O=C(O)/C=C/c1ccc(Oc2ccccc2C(=O)O)o1`: in experiment [1], the GI50 was > 10 µM (inactive).

As for `CC(=O)C1CCN(c2ccccc2)C1` (centres undefined), the GI50 in experiment [3], in experiment [7], in experiment [8], in experiment [4] and in experiment [5] was > 100 µM (inactive) each time.

With `COC(=O)c1c2c(cc3c1CC1(C3)Cc3cc4c(c(C(C)=O)c3C1)CCC4)C=CC2` (centres undefined), the GI50 in experiment [1] was > 31.6 µM (inactive).

`N#CC12Cc3ccc4c(c3-c3cccc(c31)CCN2C(=O)c1ccccc1)OCO4` (centres undefined): the GI50 is > 100 µM (inactive) in experiment [2]; > 100 µM (inactive) in experiment [3]; > 100 µM (inactive) in experiment [6]; > 100 µM (inactive) in experiment [7]; 45 µM (inactive) in experiment [8]; > 100 µM (inactive) in experiment [4]. The GI50 in experiment [5] was > 100 µM (inactive).

Regarding `CC(=O)/C(=C/NC(=S)c1cccnc1)C(=O)Nc1ccccc1C`, the GI50 in experiment [1] was > 100 µM (inactive).

Take `O=CC1=CCC2c3[nH]c4ccccc4c3CCN2C1` (centres undefined): the GI50 was 55.7 µM (inactive) in experiment [2]; 82.4 µM (inactive) in experiment [3]; > 396 µM (inactive) in experiment [6]; 74.3 µM (inactive) in experiment [7]; 72.3 µM (inactive) in experiment [8]; 85.5 µM (inactive) in experiment [5].

In the case of `CC(C)=CCNc1ncnc2c1ncn2CCC(=O)O`, in experiment [1], the GI50 is > 100 µM (inactive).

Take `CN(CCc1ccccn1)c1ccc2c(c1)Cc1ccccc1-2`: the GI50 in experiment [1] is 14.7 µM (inactive).

On to `Clc1ccc(CCn2cncn2)c(Cl)c1`, for which the GI50 in experiment [2] is > 100 µM (inactive); in experiment [3], > 100 µM (inactive); in experiment [6], 44.6 µM (inactive); in experiment [7], > 100 µM (inactive); in experiment [4] it was > 100 µM (inactive); in experiment [5] it was > 100 µM (inactive).

`CCOC(=O)c1cc(C)nc2c1c(=O)n(-c1ccccc1)c(=O)n2CCCCN1CCN(c2ccccc2)CC1`: the GI50 in experiment [1] is > 100 µM (inactive).

As for `O=C1CSc2nnc(CCCCCCCCc3nnc4n3NC(=O)CS4)n2N1`, the GI50 in experiment [1] was 56.8 µM (inactive).

Turning to `CC(=O)OCC1OC(n2c(C)c(/N=N/c3ccc(Cl)cc3)c(C)c(C#N)c2=S)C(OC(C)=O)C(OC(C)=O)C1OC(C)=O` (centres undefined), the GI50 in experiment [1] was 15.3 µM (inactive).

Take `Cc1ccc2c(=O)[nH]sc2c1`: in experiment [1], the GI50 was 15.4 µM (inactive).

With `Clc1ccc2c(NCCCC/N=C/c3ccccc3)ccnc2c1`, the GI50 in experiment [1] is 13.4 µM (inactive).

`Cc1ccc(S(=O)(=O)NC(=O)NCC(=O)NCC(=O)O)cc1`: the GI50 in experiment [1] is > 100 µM (inactive).

For `CC#CC(=O)Nc1ccccc1CC(c1c[nH]c2ccccc12)c1c[nH]c2ccccc12`, the GI50 in experiment [2] was 15.1 µM (inactive); in experiment [3], 16.2 µM (inactive); in experiment [7], 14.4 µM (inactive); in experiment [4] it was 11.6 µM (inactive); in experiment [5], 16.6 µM (inactive).

`O=C(O)C[n+]1cn(NC(=O)Cc2ccccc2)cn1`: the GI50 in experiment [1] is > 10 µM (inactive).

As for `CCCCOC(=O)C(O)Cc1ccoc1` (centres undefined), the GI50 in experiment [1] was > 100 µM (inactive).

As for `C[C@]12CC[C@@H]3c4ccc(OP(=O)(O)O)cc4CC[C@H]3[C@@H]1CCC2=O`, the GI50 in experiment [1] is 67.6 µM (inactive).

For the compound `C=C1C(=O)C23CC1C[C@H](OC(C)=O)C2C1(C)C(OC(C)=O)C[C@H](O)C(C)(C)[C@H]1C(O)[C@@H]3OC(C)=O` (some centres undefined), the GI50 in experiment [1] was 3.03 µM (inactive).

Consider `COC(=O)C1CCC2(C)[C@H](CCC3O[C@]32C)[C@@]1(C)CC(=O)c1ccoc1` (some centres undefined), for which the GI50 in experiment [2] was 40.6 µM (inactive); in experiment [3], > 100 µM (inactive); in experiment [7] it was 46.1 µM (inactive); in experiment [8] it was 20.4 µM (inactive); in experiment [4] it was > 100 µM (inactive); in experiment [5], > 100 µM (inactive).

For the compound `C[C@]12CC[C@@H]3c4cc(I)c(O)cc4CC[C@H]3[C@@H]1CC[C@@H]2O`, in experiment [1], the GI50 was 11.6 µM (inactive).

`NCCCCNCCCN1CC1`: the GI50 in experiment [1] was 1.06 µM (active).

As for `CC1=CC(=O)[C@@H](O)[C@]2(C)[C@H]3[C@@]4(O)OC[C@@]35[C@@H](C[C@@H]12)OC(=O)C(OC(=O)CC1=CCCC1)[C@H]5[C@@H](C)[C@H]4O` (some centres undefined), the GI50 in experiment [1] is 0.0409 µM (active).

Regarding `CC(C)C(NC(=O)OCC1c2ccccc2-c2ccccc21)C(=O)NC(CCC(=O)OC(C)(C)C)C(=O)OC(C)(C)C` (centres undefined) (Fmoc-Val-Glu(OtBu)-OtBu; configuration not given here), the GI50 in experiment [1] is > 100 µM (inactive).

On to `C[C@@H](CN1CC(=O)NC(=O)C1)N1CC(=O)NC(=O)C1` [DEXRAZOXANE], for which the GI50 in experiment [3] was 218 µM (inactive); in experiment [6], 422 µM (inactive); in experiment [7], 70.5 µM (inactive); in experiment [8] it was 102 µM (inactive); in experiment [4], 435 µM (inactive); in experiment [1], 230 µM (inactive). Further, in experiment [5], the GI50 was 424 µM (inactive).
